One series deals with PfCDPK1 (Plasmodium falciparum (isolate 3D7), UniProt P62344). As to the kind of experiment: biochemical. To be noted: for inhibition at 3 µM: read-out: PfCDPK1 (% inhibition @ 3 uM).
The target in the next series is CpCDPK1 (Cryptosporidium parvum (strain Iowa II), UniProt A3FQ16). Description: biochemical. As to conditions: read-out: IC50 (μM) CpCDPK1. Format: biochemical.
In a further series the target is PfCDPK4 (Plasmodium falciparum (isolate 3D7), UniProt Q8IBS5). As to the kind of experiment: biochemical. To be noted: for inhibition at 3 µM: read-out: PfCDPK4 (% inhibition @ 3 uM).
Series [1] has as its system human promyelocytic leukemia (HL-60). Description: Growth inhibition of human cell line HL-60. As to conditions: 10 μM.
In series [2] the test system is human lymphocyte (CRL8155). As to the kind of experiment: Growth inhibition of human cell line CRL8155. As to conditions: 10 μM.

From patent US9765037B2, “Compositions and methods for treating toxoplasmosis, cryptosporidiosis, and other apicomplexan protozoan related diseases” (University of Washington Through its Center for …, priority 2010, dated 2017) come the findings set out here.

The term inhibition denotes the share of the control response that was lost under treatment. As usually defined, the IC50 is the concentration that inhibits the measured activity by half. Broadly, the EC50 is the concentration needed to bring the measured effect to its halfway point.

SMILES strings stand for the structures. Read-outs that look alike come from different tables or passages of the source. Where only a bound is given, the exact number is not on record here.

Chain of CpCDPK1 (A3FQ16 1-538): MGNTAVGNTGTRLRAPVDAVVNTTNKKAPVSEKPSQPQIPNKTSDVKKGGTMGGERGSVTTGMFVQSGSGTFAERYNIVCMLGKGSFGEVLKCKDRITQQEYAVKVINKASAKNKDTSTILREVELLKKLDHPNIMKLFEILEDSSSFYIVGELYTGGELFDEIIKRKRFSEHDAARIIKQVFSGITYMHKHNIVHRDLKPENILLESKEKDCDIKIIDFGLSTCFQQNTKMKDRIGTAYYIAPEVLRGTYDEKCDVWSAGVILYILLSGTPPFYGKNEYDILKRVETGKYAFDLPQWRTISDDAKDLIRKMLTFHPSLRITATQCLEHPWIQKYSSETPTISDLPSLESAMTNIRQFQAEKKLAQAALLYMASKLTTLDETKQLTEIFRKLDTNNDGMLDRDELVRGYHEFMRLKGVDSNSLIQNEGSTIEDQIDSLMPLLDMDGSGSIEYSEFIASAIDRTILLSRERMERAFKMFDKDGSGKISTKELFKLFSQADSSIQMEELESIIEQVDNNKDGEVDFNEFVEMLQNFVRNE

In the case of `Cc1cccc(-c2nn(C(C)C)c3ncnc(N)c23)c1` [Compound 7g, 1-isopropyl-3-m-tolyl-1H-pyrazolo[3,4-d]pyrimidin-4-amine], the inhibition at 3 µM at PfCDPK1 was 72%; on PfCDPK4, 64%. Moreover, at CpCDPK1, the IC50 was found to be 0.114 µM.

For the molecule `COc1ccc(-c2nn(C(C)C)c3ncnc(N)c23)cc1` [Compound 7j, 1-isopropyl-3-(4-methoxyphenyl)-1H-pyrazolo[3,4-d]pyrimidin-4-amine], the results for the inhibition at 3 µM on PfCDPK1 and at PfCDPK4 were 87% and 30%, respectively. The 50% inhibitory concentration (IC50) on CpCDPK1 amounted to 0.41 µM.

In the case of `COc1ccc(-c2nn(C(C)C)c3ncnc(N)c23)cc1C` [Compound 7m, 1-isopropyl-3-(4-methoxy-3-methylphenyl)-1H-pyrazolo[3,4-d]pyrimidin-4-amine], on CpCDPK1, the IC50 is 0.017 µM.

As for `Nc1ncnc2c1c(-c1ccc3cc(OCc4ccc(Cl)cc4)ccc3c1)nn2CC1CCNCC1` [Compound 39, 3-(6-(4-chlorobenzyloxy)naphthalen-2-yl)-1-(piperidin-4-ylmethyl)-1H-pyrazolo[3,4-d]pyrimidin-4-amine], the figures for the EC50 on PfCDPK1 and at PfCDPK4 were 21.1 nM and 9.2 nM, respectively.

For `CC(C)COc1ccc2cc(-c3nn(C(C)C)c4ncnc(N)c34)ccc2c1` [Compound 43, 3-(6-isobutoxynaphthalen-2-yl)-1-isopropyl-1H-pyrazolo[3,4-d]pyrimidin-4-amine], the concentration giving a half-maximal response (EC50) is 278 nM on PfCDPK1 and 1200 nM at PfCDPK4.

For the molecule `CC(C)n1nc(-c2ccc3cc(OCc4cccc(Cl)c4)ccc3c2)c2c(N)ncnc21` [Compound 47, 3-(6-(3-chlorobenzyloxy)naphthalen-2-yl)-1-isopropyl-1H-pyrazolo[3,4-d]pyrimidin-4-amine], the EC50 on PfCDPK1 was determined as 1290 nM; at PfCDPK4, 1430 nM. Further, the IC50 on CpCDPK1 (Table 8) was 0.272 µM.

As for `Cc1ccc(C)c(COc2ccc3cc(-c4nn(C(C)C)c5ncnc(N)c45)ccc3c2)c1` [Compound 48, 3-(6-(2,5-dimethylbenzyloxy)naphthalen-2-yl)-1-isopropyl-1H-pyrazolo[3,4-d]pyrimidin-4-amine], the EC50 was 2280 nM at PfCDPK1 and over 3000 nM on PfCDPK4.

As to `Cc1ccccc1COc1ccc2cc(-c3nn(C(C)C)c4ncnc(N)c34)ccc2c1` [Compound 49, 1-isopropyl-3-(6-(2-methylbenzyloxy)naphthalen-2-yl)-1H-pyrazolo[3,4-d]pyrimidin-4-amine], the EC50 at PfCDPK1 is 688 nM; on PfCDPK4, 2350 nM.

As for `Cc1ccc(C(F)(F)F)cc1COc1ccc2cc(-c3nn(C(C)C)c4ncnc(N)c34)ccc2c1` [Compound 50, 1-isopropyl-3-(6-(2-methyl-5-(trifluoromethyl)benzyloxy)naphthalen-2-yl)-1H-pyrazolo[3,4-d]pyrimidin-4-amine], the EC50 at PfCDPK1 was 2090 nM; on PfCDPK4 it was over 3000 nM.

In the case of `CC(C)n1nc(-c2ccc3cc(OCc4ccc(CC(F)(F)F)c(Cl)c4)ccc3c2)c2c(N)ncnc21` [Compound 51, 3-(6-(3-chloro-4-(2,2,2-trifluorethyl)benzyloxy)naphthalen-2-yl)-1-isopropyl-1H-pyrazolo[3,4-d]pyrimidin-4-amine], the EC50 on PfCDPK1 is 1600 nM; on PfCDPK4 it was 260 nM.

As for `CC(C)n1nc(-c2ccc3cc(OCc4cc(F)cc(Cl)c4)ccc3c2)c2c(N)ncnc21` [Compound 52, 3-(6-(3-chloro-5-fluorobenzyloxy)naphthalen-2-yl)-1-isopropyl-1H-pyrazolo[3,4-d]pyrimidin-4-amine], the figures for the EC50 at PfCDPK1 and on PfCDPK4 were 1070 nM and 1230 nM, respectively.

On to `CC(Oc1ccc2cc(-c3nn(C(C)C)c4ncnc(N)c34)ccc2c1)c1ccccc1` (stereo not shown) [Compound 53, 1-isopropyl-3-(6-(1-phenylethoxy)naphthalen-2-yl)-1H-pyrazolo[3,4-d]pyrimidin-4-amine], for which the EC50 at PfCDPK1 was determined as 532 nM; on PfCDPK4 it was 1640 nM.

Take `CC(C)n1nc(-c2ccc3cc(OCc4ccc(C(C)(C)C)cc4)ccc3c2)c2c(N)ncnc21` [Compound 54, 3-(6-(4-tert-butylbenzyloxy)naphthalen-2-yl)-1-isopropyl-1H-pyrazolo[3,4-d]pyrimidin-4-amine]: the results for the half-maximal effective concentration (EC50) at PfCDPK1 and at PfCDPK4 were 47.8 nM and 438 nM, respectively.

As for `CC(C)n1nc(-c2ccc3cc(OCc4ccncc4)ccc3c2)c2c(N)ncnc21` [Compound 55, 1-isopropyl-3-(6-(pyridin-4-ylmethoxy)naphthalen-2-yl)-1H-pyrazolo[3,4-d]pyrimidin-4-amine], the EC50 on PfCDPK1 is 216 nM; at PfCDPK4, 175 nM.

In the case of `CC(C)n1nc(-c2ccc3cc(OCc4ccc(Cl)cc4)ccc3c2)c2c(N)ncnc21` [Compound 56, 3-(6-(4-chlorobenzyloxy)naphthalen-2-yl)-1-isopropyl-1H-pyrazolo[3,4-d]pyrimidin-4-amine], the values for the EC50 at PfCDPK1 and on PfCDPK4 were 1140 nM and 888 nM, respectively. Also, the IC50 at CpCDPK1 (Table 8) is 0.105 µM.

On to `Cn1ccc2cc(-c3nn(CC4CCNCC4)c4ncnc(N)c34)ccc21` [Compound 57, 3-(1-methyl-1H-indol-5-yl)-1-(piperidin-4-ylmethyl)-1H-pyrazolo[3,4-d]pyrimidin-4-amine], for which the EC50 at PfCDPK1 came out at 705 nM; on PfCDPK4 it was 243 nM.

In the case of `CN(C)c1ccc2cc(-c3nn(CC4CCNCC4)c4ncnc(N)c34)ccc2n1` [Compound 68, 6-(4-amino-1-(piperidin-4-ylmethyl)-1H-pyrazolo[3,4-d]pyrimidin-3-yl)-N,N-dimethylquinolin-2-amine], the IC50 on CpCDPK1 (Table 8) is over 3 µM.

Turning to `N#Cc1cccc(-c2ccc(-c3nn(CC4CCNCC4)c4ncnc(N)c34)cc2)c1` [Compound 74, 4′-(4-amino-1-(piperidin-4-ylmethyl)-1H-pyrazolo[3,4-d]pyrimidin-3-yl)biphenyl-3-carbonitrile], the EC50 at PfCDPK1 turned out to be 347 nM; at PfCDPK4, 1010 nM.

`COC(=O)Nc1nc2ccc(C(O)c3ccccc3)cc2[nH]1` (stereo not shown) [Compound 82]: the 50% effective concentration (EC50) on PfCDPK1 and on PfCDPK4 was over 3000 nM in each case.

Regarding `CC(C)n1nc(-c2ccc3cc(OC(=O)c4cccc(Cl)c4)ccc3c2)c2c(N)ncnc21` [Compound 85], the results for the EC50 at PfCDPK1 and at PfCDPK4 were 229 nM and 479 nM, respectively.

As to `O=C(NCCO)Nc1nc2ccc(C(=O)c3ccccc3)cc2[nH]1` [Compound 90], the “Cell Toxicity HL60, % at 10 μM” value in series [1] is under 30% at 10 μM. The “Cell Toxicity CRL8155, % at 10 μM” value in series [2] is given as under 30% at 10 μM.

For the molecule `Nc1ncnc2c1c(I)nn2CC1CCNCC1` [Compound 98], the “Cell Toxicity HL60, % at 10 μM” value in series [1] is given as under 30% at 10 μM. Moreover, in series [2], the “Cell Toxicity CRL8155, % at 10 μM” value is recorded as under 30% at 10 μM.

For `Nc1ncnc2c1c(-c1ccc(-c3ccccc3)cc1)nn2CC1CCNCC1` [Compound 100], the EC50 came out at 74.9 nM on PfCDPK1 and 908 nM at PfCDPK4.

Regarding `NCCCCCC(=O)Nc1nc2ccc(C(=O)c3ccccc3)cc2[nH]1` [Compound 105], the “Cell Toxicity HL60, % at 10 μM” value in series [1] is given as under 30% at 10 μM. In series [2], the “Cell Toxicity CRL8155, % at 10 μM” value is given as under 30% at 10 μM.

For the molecule `CC(C)COc1ccc2cc(-c3nn(C(C)(C)C)c4ncnc(N)c34)ccc2c1` [Compound 130], the EC50 was 2950 nM on PfCDPK1 and over 3000 nM on PfCDPK4.

Regarding `CC(C)(C)n1nc(-c2ccc3oc(-c4ccccc4)nc3c2)c2c(N)ncnc21` [Compound 131], the EC50 is 266 nM at PfCDPK1 and over 3000 nM at PfCDPK4.

On to `CC(C)(C)n1nc(-c2ccc(-c3nn(C(C)(C)C)c4ncnc(N)c34)cc2)c2c(N)ncnc21` [Compound 141], for which, at PfCDPK1, the midpoint of the response, the EC50, lay at 1470 nM and the inhibition at 3 µM worked out at 92%. At PfCDPK4, the EC50 came out at 2030 nM and the inhibition at 3 µM was 55%.
